Test results as given in ChEMBL document CHEMBL5291721, “A preclinical secondary pharmacology resource illuminates target-adverse drug reaction associations of marketed drugs” (Nat Commun, 2023).

Columns and labels:
[1] = molecular target: T1, Amine oxidase [flavin-containing] A (Homo sapiens, UniProt P21397); assay type: functional
T1 sequence (P21397 whole entry): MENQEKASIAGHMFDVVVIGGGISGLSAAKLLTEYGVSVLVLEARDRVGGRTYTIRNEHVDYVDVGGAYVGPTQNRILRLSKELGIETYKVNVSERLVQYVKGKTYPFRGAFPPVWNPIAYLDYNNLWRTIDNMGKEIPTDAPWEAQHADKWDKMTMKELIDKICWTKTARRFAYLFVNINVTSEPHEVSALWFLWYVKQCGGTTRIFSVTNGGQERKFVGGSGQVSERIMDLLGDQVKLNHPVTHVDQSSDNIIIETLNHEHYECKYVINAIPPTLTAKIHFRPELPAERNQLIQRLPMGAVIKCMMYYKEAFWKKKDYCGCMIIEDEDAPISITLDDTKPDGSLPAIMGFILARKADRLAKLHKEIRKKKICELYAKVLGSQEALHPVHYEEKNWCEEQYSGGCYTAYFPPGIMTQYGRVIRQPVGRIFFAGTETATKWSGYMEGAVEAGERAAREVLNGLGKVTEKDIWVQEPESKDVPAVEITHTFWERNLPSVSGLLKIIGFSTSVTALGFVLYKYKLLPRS

[2] = molecular target: 5-hydroxytryptamine receptor 2B (Homo sapiens, UniProt P41595); assay type: functional, cell-based
[3] = molecular target: Sodium-dependent serotonin transporter (Homo sapiens, UniProt P31645)
[4] = molecular target: Prostaglandin G/H synthase 1 (Homo sapiens, UniProt P23219); assay type: functional
[5] = molecular target: T2, Alpha-2A adrenergic receptor (Homo sapiens, UniProt P08913)
T2 sequence (P08913 whole entry): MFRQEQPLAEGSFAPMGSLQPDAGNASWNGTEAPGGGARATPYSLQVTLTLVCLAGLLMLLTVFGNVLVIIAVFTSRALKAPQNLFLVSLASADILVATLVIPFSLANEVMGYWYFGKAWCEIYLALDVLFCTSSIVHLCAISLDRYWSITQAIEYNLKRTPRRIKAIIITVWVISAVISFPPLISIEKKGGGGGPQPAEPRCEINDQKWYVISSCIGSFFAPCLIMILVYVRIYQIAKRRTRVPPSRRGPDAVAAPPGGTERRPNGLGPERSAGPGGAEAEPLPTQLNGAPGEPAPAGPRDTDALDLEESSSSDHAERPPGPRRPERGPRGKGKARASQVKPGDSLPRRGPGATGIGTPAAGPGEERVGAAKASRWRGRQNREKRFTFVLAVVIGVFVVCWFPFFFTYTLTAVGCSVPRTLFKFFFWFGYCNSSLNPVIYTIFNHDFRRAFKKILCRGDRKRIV

[6] = molecular target: Vascular endothelial growth factor receptor 2 (Homo sapiens, UniProt P35968); assay type: functional
[7] = molecular target: T3, Muscarinic acetylcholine receptor M1 (Homo sapiens, UniProt P11229); assay type: functional, cell-based
T3 sequence (P11229 whole entry): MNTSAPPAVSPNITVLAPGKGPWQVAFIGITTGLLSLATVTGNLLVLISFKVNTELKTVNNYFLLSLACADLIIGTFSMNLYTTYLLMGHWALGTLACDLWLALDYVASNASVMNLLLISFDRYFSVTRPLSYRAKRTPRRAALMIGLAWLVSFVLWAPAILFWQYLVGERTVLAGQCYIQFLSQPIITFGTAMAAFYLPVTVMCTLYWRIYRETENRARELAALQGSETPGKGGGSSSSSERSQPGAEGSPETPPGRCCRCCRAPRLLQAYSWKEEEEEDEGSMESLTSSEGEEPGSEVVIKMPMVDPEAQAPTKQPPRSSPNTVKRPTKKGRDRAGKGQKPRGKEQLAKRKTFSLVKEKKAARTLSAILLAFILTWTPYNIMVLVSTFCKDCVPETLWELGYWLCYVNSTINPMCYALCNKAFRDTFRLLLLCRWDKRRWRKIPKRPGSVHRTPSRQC

[8] = molecular target: T4, Peroxisome proliferator-activated receptor gamma (Homo sapiens, UniProt P37231); assay type: functional
T4 sequence (P37231 whole entry): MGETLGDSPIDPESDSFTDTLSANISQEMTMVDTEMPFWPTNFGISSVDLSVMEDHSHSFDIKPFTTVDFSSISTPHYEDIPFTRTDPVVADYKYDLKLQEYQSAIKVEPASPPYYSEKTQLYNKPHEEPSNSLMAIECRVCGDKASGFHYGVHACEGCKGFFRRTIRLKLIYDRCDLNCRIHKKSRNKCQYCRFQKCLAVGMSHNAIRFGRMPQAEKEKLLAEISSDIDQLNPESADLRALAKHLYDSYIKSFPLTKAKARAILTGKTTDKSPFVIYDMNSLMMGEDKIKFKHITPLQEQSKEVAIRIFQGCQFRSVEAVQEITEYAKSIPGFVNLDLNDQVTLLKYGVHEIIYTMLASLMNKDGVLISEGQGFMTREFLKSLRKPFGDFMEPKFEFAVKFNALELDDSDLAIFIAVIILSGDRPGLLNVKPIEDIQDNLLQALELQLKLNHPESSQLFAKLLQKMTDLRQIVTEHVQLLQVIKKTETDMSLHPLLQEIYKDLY

[9] = molecular target: Hydroxycarboxylic acid receptor 2 (Homo sapiens, UniProt Q8TDS4)
Thromboxane A2 receptor = molecular target: T5, Thromboxane A2 receptor (Homo sapiens, UniProt P21731); assay type: functional
T5 sequence (P21731 whole entry): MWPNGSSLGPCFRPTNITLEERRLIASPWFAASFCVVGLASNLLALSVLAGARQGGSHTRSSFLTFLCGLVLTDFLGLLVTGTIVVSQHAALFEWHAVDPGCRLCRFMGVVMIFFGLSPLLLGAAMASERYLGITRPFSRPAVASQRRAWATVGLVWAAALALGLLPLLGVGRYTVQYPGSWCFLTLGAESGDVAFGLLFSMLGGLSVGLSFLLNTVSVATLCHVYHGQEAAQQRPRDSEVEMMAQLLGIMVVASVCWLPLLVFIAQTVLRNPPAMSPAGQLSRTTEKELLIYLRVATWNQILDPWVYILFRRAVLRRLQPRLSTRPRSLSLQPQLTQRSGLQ

[10] = molecular target: Epidermal growth factor receptor (Homo sapiens, UniProt P00533); assay type: functional
Note: assay procedure not described here.

Sequence of Vascular endothelial growth factor receptor 2 (P35968 whole entry): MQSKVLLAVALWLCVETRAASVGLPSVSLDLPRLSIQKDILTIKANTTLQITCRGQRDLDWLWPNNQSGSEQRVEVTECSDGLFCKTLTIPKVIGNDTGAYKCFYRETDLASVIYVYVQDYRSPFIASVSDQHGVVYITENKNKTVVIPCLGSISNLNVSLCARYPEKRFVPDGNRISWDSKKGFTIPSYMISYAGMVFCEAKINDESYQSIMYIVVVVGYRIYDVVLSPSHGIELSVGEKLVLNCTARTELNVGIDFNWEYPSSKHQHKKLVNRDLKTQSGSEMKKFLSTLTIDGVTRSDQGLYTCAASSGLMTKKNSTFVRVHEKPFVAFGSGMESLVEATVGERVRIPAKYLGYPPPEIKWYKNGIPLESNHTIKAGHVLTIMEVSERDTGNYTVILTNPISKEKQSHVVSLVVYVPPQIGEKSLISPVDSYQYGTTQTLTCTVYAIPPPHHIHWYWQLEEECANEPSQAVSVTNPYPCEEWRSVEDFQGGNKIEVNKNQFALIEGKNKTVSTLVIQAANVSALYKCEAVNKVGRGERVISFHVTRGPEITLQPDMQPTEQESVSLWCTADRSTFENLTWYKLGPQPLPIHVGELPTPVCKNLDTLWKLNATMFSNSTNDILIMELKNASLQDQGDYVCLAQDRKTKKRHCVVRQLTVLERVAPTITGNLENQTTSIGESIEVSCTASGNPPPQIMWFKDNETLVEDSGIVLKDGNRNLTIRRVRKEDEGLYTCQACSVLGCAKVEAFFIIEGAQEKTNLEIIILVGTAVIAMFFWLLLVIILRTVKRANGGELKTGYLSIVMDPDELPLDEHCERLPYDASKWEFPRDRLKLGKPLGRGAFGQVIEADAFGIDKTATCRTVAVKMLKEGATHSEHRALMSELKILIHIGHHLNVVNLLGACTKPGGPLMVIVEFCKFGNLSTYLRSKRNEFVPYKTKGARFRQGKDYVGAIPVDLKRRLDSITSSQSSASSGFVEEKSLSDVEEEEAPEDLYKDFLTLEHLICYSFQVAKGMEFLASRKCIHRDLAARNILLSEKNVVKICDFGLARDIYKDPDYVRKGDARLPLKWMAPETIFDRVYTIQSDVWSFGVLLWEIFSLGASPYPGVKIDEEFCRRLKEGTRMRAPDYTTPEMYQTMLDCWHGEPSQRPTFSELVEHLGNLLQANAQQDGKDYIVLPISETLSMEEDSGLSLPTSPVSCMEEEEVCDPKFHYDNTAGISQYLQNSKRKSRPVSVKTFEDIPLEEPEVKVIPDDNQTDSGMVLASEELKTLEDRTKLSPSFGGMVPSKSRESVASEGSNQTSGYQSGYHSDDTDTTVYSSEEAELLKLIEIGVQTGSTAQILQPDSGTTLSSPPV
Sequence of 5-hydroxytryptamine receptor 2B (P41595 whole entry): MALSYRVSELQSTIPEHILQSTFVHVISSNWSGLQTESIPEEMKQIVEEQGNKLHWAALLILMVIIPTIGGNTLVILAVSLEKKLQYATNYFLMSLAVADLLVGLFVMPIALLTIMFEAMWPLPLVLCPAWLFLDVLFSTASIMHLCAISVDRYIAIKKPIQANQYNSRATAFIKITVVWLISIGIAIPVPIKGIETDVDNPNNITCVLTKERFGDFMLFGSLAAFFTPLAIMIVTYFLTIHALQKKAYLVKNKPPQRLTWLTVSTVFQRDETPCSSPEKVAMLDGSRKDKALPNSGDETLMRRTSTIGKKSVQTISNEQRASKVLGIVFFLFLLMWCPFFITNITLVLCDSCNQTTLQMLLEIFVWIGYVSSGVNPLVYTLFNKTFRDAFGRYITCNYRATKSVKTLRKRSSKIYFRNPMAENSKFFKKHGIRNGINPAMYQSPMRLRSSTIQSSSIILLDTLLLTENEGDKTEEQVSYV
Sequence of Prostaglandin G/H synthase 1 (P23219 whole entry): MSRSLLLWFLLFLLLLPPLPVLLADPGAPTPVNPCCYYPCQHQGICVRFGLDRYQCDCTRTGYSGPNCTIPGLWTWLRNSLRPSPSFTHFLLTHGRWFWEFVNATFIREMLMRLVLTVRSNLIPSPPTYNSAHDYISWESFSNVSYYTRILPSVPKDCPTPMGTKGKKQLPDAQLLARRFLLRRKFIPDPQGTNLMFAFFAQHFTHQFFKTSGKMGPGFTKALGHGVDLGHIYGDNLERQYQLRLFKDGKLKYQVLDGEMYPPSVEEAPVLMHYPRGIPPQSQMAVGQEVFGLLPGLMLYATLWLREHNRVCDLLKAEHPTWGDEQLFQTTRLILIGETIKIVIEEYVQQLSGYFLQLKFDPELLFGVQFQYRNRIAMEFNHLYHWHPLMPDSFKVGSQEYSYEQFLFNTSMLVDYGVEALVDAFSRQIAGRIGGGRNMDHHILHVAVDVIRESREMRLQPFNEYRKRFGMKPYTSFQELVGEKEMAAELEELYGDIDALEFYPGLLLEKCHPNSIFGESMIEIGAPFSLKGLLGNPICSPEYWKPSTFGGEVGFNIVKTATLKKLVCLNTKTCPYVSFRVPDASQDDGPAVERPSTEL
Sequence of Sodium-dependent serotonin transporter (P31645 whole entry): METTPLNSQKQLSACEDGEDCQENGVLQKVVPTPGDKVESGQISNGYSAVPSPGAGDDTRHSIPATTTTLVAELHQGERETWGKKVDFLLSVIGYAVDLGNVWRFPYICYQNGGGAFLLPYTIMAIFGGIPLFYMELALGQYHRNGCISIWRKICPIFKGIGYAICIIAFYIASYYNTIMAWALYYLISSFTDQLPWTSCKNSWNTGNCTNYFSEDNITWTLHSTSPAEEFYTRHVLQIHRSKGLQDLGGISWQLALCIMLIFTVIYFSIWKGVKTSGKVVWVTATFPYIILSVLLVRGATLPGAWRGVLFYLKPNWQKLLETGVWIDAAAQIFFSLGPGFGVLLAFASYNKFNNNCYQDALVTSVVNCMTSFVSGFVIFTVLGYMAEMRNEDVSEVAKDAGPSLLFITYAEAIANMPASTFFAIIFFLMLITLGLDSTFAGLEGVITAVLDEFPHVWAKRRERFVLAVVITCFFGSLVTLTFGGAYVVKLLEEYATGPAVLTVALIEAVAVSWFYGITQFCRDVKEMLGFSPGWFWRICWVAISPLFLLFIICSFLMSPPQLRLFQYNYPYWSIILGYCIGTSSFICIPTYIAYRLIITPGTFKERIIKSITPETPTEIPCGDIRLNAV
Sequence of Hydroxycarboxylic acid receptor 2 (Q8TDS4 whole entry): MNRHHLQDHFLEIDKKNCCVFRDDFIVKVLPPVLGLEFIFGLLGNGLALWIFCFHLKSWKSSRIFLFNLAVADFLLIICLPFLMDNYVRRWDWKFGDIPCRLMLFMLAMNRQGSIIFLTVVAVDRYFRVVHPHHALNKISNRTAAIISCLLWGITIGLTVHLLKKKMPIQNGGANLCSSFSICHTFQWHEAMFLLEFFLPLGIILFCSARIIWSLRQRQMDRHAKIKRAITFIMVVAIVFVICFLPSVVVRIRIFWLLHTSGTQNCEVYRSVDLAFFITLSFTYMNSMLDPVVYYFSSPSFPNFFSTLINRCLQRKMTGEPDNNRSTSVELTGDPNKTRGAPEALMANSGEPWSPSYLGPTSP
Sequence of Epidermal growth factor receptor (P00533 whole entry): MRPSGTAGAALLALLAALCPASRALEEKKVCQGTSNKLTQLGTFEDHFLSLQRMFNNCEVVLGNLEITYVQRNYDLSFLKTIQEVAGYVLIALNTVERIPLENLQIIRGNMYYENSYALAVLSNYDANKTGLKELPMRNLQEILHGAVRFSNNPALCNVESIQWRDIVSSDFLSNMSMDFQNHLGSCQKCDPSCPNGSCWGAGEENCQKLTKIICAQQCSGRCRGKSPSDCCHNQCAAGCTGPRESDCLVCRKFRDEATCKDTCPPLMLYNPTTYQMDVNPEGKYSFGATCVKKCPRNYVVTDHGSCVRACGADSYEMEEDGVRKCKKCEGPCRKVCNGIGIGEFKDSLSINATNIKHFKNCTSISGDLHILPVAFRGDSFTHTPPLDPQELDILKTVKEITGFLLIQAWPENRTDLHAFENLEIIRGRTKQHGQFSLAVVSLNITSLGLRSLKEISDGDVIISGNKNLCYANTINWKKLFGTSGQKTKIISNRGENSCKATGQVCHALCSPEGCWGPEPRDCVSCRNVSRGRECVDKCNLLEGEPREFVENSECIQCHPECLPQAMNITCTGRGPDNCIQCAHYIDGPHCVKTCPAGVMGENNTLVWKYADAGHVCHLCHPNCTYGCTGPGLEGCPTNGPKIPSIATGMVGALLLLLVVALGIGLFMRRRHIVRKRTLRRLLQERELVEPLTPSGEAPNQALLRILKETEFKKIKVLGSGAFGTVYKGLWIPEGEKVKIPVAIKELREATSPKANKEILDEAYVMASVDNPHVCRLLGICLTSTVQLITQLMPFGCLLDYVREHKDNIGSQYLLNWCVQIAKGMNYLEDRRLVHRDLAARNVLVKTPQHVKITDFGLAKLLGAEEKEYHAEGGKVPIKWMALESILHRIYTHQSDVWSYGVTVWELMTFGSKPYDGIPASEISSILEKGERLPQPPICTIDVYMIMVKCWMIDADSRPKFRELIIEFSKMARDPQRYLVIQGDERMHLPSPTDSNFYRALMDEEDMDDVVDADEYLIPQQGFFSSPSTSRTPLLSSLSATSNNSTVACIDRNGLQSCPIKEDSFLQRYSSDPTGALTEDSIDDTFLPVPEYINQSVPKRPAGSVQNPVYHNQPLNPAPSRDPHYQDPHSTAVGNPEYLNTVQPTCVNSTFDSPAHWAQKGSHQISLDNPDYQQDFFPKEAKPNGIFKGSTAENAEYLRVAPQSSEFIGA

**Q.** What does the source list for `CO[C@]12C[C@@H](COC(=O)c3cncc(Br)c3)CN(C)[C@@H]1Cc1cn(C)c3cccc2c13` [NICERGOLINE]?
**A.** AC50 [1]: > 30 µM; AC50 [2]: > 30 µM; AC50 [3]: 7.26 µM; AC50 [4]: > 30 µM; AC50 [5]: 0.0426 µM; AC50 [6]: > 30 µM; AC50 [7]: 1.86 µM

**Q.** Which AC50 [8] does the source give for `Brc1c(NC2=NCCN2)ccc2nccnc12` [BRIMONIDINE] here?
**A.** > 30 µM

**Q.** With `COc1cccc(C2(O)CCCCC2CN(C)C)c1` (stereo unspecified) [TRAMADOL] as the compound, how does the AC50 [9] read?
**A.** > 10 µM

**Q.** For THIMEROSAL, which AC50 (Thromboxane A2 receptor) is on record?
**A.** > 30 µM

**Q.** How did the AC50 [10] turn out when `CC(CC1c2ccccc2CCc2ccccc21)CN(C)C` (stereo unspecified) [BUTRIPTYLINE] was run?
**A.** > 30 µM
